These results are taken from article PMC11863921 (BMC Biology, 2025).

In one assay the test system is ArubRXFP/LGR3. Put plainly: Luminescence (GFP-aequorin G5A, GqS5) assay in CHO-K1 cells transfected with ArubRXFP/LGR3. As to conditions: for luminescence response at 10^−5 M versus background: basal media as background; for EC50: 10^−14 to 10^−5 M, 35 s, three independent transfections, four-parameter fit, read-out: EC50 for induced luminescence; for luminescence response versus BSA control: 10–5 M, 30 s, one-way ANOVA with Bonferroni (***p < 0.001, *p < 0.1), Fig. S6; for dose-dependent triggering of luminescence: Fig. 6 A, B. It counts as cell-based, A. rubens. The procedure: (§1) ArubRGP1 and ArubRGP2 were tested as ligands for ArubRXFP/LGR3 (isoform X2; XP_033631990.1) and ArubLGR4 (isoform X3; XP_033635731.1) by co-transfection of CHO-K1 cells stably expressing the green fluorescent protein (GFP) – apoaequorin construct G5A [25] with the chimeric G-protein Gqs5, which is a Gq-type protein modified to incorporate Gs-type sequences that enable it to interact with GPCRs that preferentially couple to Gs-type G-proteins. Synthetic ArubRGP1 or ArubRGP2 were initially tested at a concentration of 10^−5 M, comparing with luminescence measured in transfected cells incubated in basal media without the addition of ArubRGP1 or ArubRGP2.
(§2) A. rubens RGP1 and RGP2 (ArubRGP1, ArubRGP2) were custom synthesized with a purity of > 95%, as reported previously. Two genes encoding relaxin receptor-related proteins were identified in A. rubens and, informed by phylogenetic analysis, these were named ArubRXFP/LGR3 and ArubLGR4. Then cDNAs encoding these proteins were custom synthesized with the inclusion of a 5′ partial Kozak translation initiation sequence (GCCACC) and incorporated into the mammalian expression vector pcDNA 3.1( +) (Genscript, Hong Kong) (Additional file 18: Dataset S11). Likewise, a cDNA encoding an N-terminally modified form of ArubRXFP/LGR3 incorporating an N-terminal signal peptide from the bovine prolactin precursor was also synthesized (with codon optimization for mammalian expression) (Genewiz, Takeley, UK) and this is referred to henceforth as ArubRXFP/LGR3(modified) (Additional file 18: Dataset S11). Chinese hamster ovary cells (CHO-K1) stably expressing the calcium-sensitive aequorin fusion protein G5A were used as an expression system. This cell line was supplied by Prof. Gaspar Jékely (University of Heidelberg, Germany) and tested negative for mycoplasma contamination using a MycoAlert PLUS kit (Lonza, Switzerland). The CHO-K1 cells were cultured in a culture medium comprising DMEM/F12, 10% fetal bovine serum, antibiotic–antimycotic, and 20 µg/mol Geneticin G418 sulfate (all purchased from Thermo Fisher scientific, Oxford, UK; cat no. 11039047, 10,082,147, 15,240,062, and 10,131,035, respectively.) When the cells reached 80% confluency, they were co-transfected with plasmids containing cDNAs encoding ArubRXFP/LGR3, ArubRXFP/LGR3(modified), or ArubLGR4 and a plasmid encoding the chimeric G-protein GqS5 (Addgene, Watertown USA), which enables GPCRs that preferentially couple to Gq-type or Gs-type proteins to signal via the phospholipase-C signaling pathway.
AruRGP1 and AruRGP2 were tested as ligands for the A. rubens receptors using luminescence-based assays, which have been described previously. Thus, 48 h after transfection, cells were detached by using PBS buffer (pH7.4; Thermofisher Scientific, Oxford, UK; cat no.10010023) supplemented with a final concentration of 5 mM EDTA pH8.0 (Thermo Fisher Scientific, Oxford, UK; cat no.15575020). Cells were then washed with DMEM/F12 buffer and then incubated with […] coelenterazine-H (Thermo Fisher Scientific, Oxford, UK; cat no. C6780) at room temperature with stirring for 3 h. ArubRGP1 or ArubRGP2 were prepared at concentrations ranging from 10^−14 to 10^−5 M and then were pipetted into 96-well plates (Costar Assay microplate, REF: 3903 or Falcon 96 well microplate, Code: 353,377). A FLUOstar Omega Plate Reader (BMG LABTECH; FLUOstar Omega Series multi-mode microplate reader) with injectors was used to sequentially add transfected CHO-K1 cells to each test well of the microtiter plate and luminescence was recorded over a 35-s period. Luminescence data were integrated over the 35 s measurement period and the mean of the triplicate measurements was calculated. Responses were normalized to the maximum response obtained in each experiment (100% activation) and to luminescence measured with the vehicle media (0% activation) (Additional file 19: Dataset S12). […]

Assay [1] relates to CHO-K1 cells transfected with an empty pcDNA3.1 + vector. The assay can be described thus: Luminescence (GFP-aequorin G5A, GqS5) assay in CHO-K1 cells transfected with empty pcDNA3.1 vector. It counts as cell-based, Chinese hamster. As to conditions: 10^−14 to 10^−5 M, Fig. 6 G, H. The procedure: as §1, with “ArubRGP2. […]” for “ArubRGP2.”
(§3) AruRGP1 and AruRGP2 were tested as ligands for the A. rubens receptors using luminescence-based assays, which have been described previously. […] A FLUOstar Omega Plate Reader (BMG LABTECH; FLUOstar Omega Series multi-mode microplate reader) with injectors was used to sequentially add transfected CHO-K1 cells to each test well of the microtiter plate and luminescence was recorded over a 35-s period. Luminescence data were integrated over the 35 s measurement period and the mean of the triplicate measurements was calculated. Responses were normalized to the maximum response obtained in each experiment (100% activation) and to luminescence measured with the vehicle media (0% activation) (Additional file 19: Dataset S12). […]

The next assay deals with ArubLGR4. The assay can be described thus: Luminescence (GFP-aequorin G5A, GqS5) assay in CHO-K1 cells transfected with ArubLGR4. It counts as cell-based, A. rubens. As to conditions: for luminescence versus basal media: 10^−5 M; for luminescence response: 10^−14 to 10^−5 M, Fig. 6 E, F. The procedure:
as §1
as §2, with “The CHO-K1 cells were cultured in a culture medium comprising DMEM/F12, 10% fetal bovine serum, antibiotic–antimycotic, and 20 µg/mol Geneticin G418 sulfate (all purchased from Thermo Fisher scientific, Oxford, UK; cat no. 11039047, 10,082,147, 15,240,062, and 10,131,035, respectively.) When the cells reached 80% confluency, they were co-transfected with plasmids containing cDNAs encoding ArubRXFP/LGR3, ArubRXFP/LGR3(modified), or ArubLGR4 and a plasmid encoding the chimeric G-protein GqS5 (Addgene, Watertown USA), which enables GPCRs that preferentially couple to Gq-type or Gs-type proteins to signal via the phospholipase-C signaling pathway.” left out
as §3

A further assay concerns modified ArubRXFP/LGR3. Put plainly: Luminescence (GFP-aequorin G5A, GqS5) assay in CHO-K1 cells transfected with modified ArubRXFP/LGR3. It is filed as cell-based, A. rubens. As to conditions: Fig. 6 C, D.
From the text: Thus, modified ArubRXFP/LGR3 was similar in this respect to the modified AsolRXFP/LGR3 protein (Fig. 5).
A. rubens RGP1 and RGP2 (ArubRGP1, ArubRGP2) were custom synthesized with a purity of > 95%, as reported previously. Two genes encoding relaxin receptor-related proteins were identified in A. rubens and, informed by phylogenetic analysis, these were named ArubRXFP/LGR3 and ArubLGR4. Then cDNAs encoding these proteins were custom synthesized with the inclusion of a 5′ partial Kozak translation initiation sequence (GCCACC) and incorporated into the mammalian expression vector pcDNA 3.1( +) (Genscript, Hong Kong) (Additional file 18: Dataset S11). […]
as §3

The target in assay [2] is Asterias rubens relaxin family peptide receptor/leucine-rich repeat G protein-coupled receptor 3 (isoform X2) (Asterias rubens).
Assay [3] has the same target. The source holds these as a separate data set.
Assay [4] addresses modified ArubRXFP/LGR3 (N-terminal region with the predicted internal signal peptide replaced by the prolactin precursor signal peptide) (Asterias rubens).
In assay [5] the target is Acanthaster cf. solaris relaxin family peptide receptor/leucine-rich repeat G protein-coupled receptor 3, N-terminally modified (prolactin signal peptide, FLAG tag) (Acanthaster cf. solaris).

“Also recorded” adds a separate entry of the source.

Turning to “Asterias rubens Relaxin-like gonad-stimulating peptide 2 [ArubRGP2]”, in the assay on ArubRXFP/LGR3, the “luminescence response at 10^−5 M versus background” value was “approximately twice the background luminescence”; the 50% effective concentration (EC50) (as a rule, the concentration at which the effect is half-maximal) came out at 383 nM; the “luminescence response versus BSA control” value was “significantly higher”; the “dose-dependent triggering of luminescence” value (shortened to “dose-dependent triggering”) is “trigger dose-dependent luminescence”. Moreover, the “luminescence response” value in assay [1] is “no response; also recorded: do not trigger luminescence”. Also, in the assay with ArubLGR4, the “luminescence versus basal media” value was “not significantly different” and the “luminescence response” value was “no response; also recorded: do not trigger luminescence”. Further, in the assay on modified ArubRXFP/LGR3, the “dose-dependent triggering” value is reported as “trigger dose-dependent luminescence”.
In the case of “Asterias rubens Relaxin-like gonad-stimulating peptide 1 [ArubRGP1]”, in the assay on ArubRXFP/LGR3, the “luminescence response at 10^−5 M versus background” value was “approximately twice the background luminescence”, the 50% effective concentration (EC50) was 22.5 nM, the “luminescence response versus BSA control” value is “significantly higher” and the “dose-dependent triggering” value was “trigger dose-dependent luminescence”. The “luminescence response” value in assay [1] is given as “no response; also recorded: do not trigger luminescence”. In the assay with ArubLGR4, the “luminescence versus basal media” value is reported as “not significantly different” and the “luminescence response” value is recorded as “no response; also recorded: do not trigger luminescence”. For the same substance, the “dose-dependent triggering” value with modified ArubRXFP/LGR3 was “trigger dose-dependent luminescence”.
The substance “Asterias rubens relaxin-like gonad-stimulating peptide 1 (ligand)” came in with an EC50 of peptide-induced luminescence (GFP-apoaequorin G5A, chimeric G-protein GqS5) in CHO-K1 cells transfected with ArubRXFP/LGR3, 10^-14 to 10^-5 M in assay [2] of 22.5 nM. In assay [3], this substance registered an EC50 of peptide-induced luminescence (GFP-apoaequorin G5A, chimeric G-protein GqS5) in CHO-K1 cells transfected with ArubRXFP/LGR3 of 25 nM. In assay [4], the EC50 of peptide-induced luminescence (GFP-apoaequorin G5A, chimeric G-protein GqS5) in CHO-K1 cells transfected with modified ArubRXFP/LGR3 was 110 nM.
The substance “Acanthaster cf. solaris relaxin-like gonad-stimulating peptide 2 (ligand)” showed a percentage of forskolin-induced cAMP levels (CRE reporter) in CHO-AsolRXFP/LGR3 cells at 10 µM AsolRGP2; no dose-response curve could be fitted (% forskolin response) in assay [5] of 12.2.
